pIC50: −log10 of the molar value.
Legend:
MCF-7 cells = experiment: Breast cancer cell viability assay (CellTiter-Glo, 5 days); format: cell-based; settings: 5 days' compound exposure; for pIC50: Homo sapiens, MCF7, 120 h
How it was run: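 MCF-7 cells, 320 per well in RPMI with 10% FBS and 20 mM HEPES, adhered overnight, then exposed 5 days to an eleven-point semilog dilution (final 0.3-0.000003 μM). CellTiter-Glo luminescence read; % viability = (sample − cell-free background)/(untreated − background) × 100.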

ER-α in MCF-7 cells = molecular target: T1, ER-α in MCF-7 cells (Homo sapiens, UniProt P03372); experiment: Breast cancer cell ER-α in cell western assay (SP1); format: cell-based; parameters: endogenous in cells; host or cells: MCF-7; settings: 4 or 24 hr post compound addition; for Emax: MCF7, SP1 antibody, read-out: ER-α In Cell Western Assay (SP1) Max Response; for DC50: SP1 antibody, read-out: ER-α In Cell Western Assay (SP1) IC50
T1 sequence (P03372 1-595): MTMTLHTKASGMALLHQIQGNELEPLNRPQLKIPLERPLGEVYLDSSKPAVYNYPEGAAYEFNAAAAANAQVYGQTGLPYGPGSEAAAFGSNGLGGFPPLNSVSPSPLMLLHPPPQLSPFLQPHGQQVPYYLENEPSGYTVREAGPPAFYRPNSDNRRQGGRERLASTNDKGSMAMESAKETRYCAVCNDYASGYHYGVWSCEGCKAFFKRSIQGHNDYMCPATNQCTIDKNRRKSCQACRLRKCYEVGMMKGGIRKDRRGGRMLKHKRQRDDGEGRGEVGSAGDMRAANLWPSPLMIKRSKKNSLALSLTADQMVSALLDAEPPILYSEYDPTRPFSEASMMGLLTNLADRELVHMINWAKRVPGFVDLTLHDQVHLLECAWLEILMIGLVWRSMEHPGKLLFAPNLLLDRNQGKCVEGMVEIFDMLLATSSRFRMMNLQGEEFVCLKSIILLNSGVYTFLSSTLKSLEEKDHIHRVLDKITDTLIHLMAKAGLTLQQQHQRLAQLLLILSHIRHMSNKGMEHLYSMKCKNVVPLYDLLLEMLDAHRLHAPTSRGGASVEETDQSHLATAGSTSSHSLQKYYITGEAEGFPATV
How it was run: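 Percent remaining ER: SP1 immunofluorescence normalized to DRAQ5 nuclear stain, compared with untreated controls. Treatment lasted 4 or 24 hr across 0.3–0.000003 μM final in MCF-7.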

SMILES	pIC50 (MCF-7 cells)	Emax (ER-α in MCF-7 cells) [%]	DC50 (ER-α in MCF-7 cells) [nM]	MCF7 Viability Assay Max Response (MCF-7 cells)
CC/C(=C(/c1ccc(/C=C/C(=O)O)cc1)c1ccc2[nH]ncc2c1F)c1ccc(Oc2cnccn2)cc1 [Compound 161, (E)-3-(4-((E)-1-(4-Fluoro-1H-indazol-5-yl)-2-(4-(pyrazin-2-yloxy)phenyl)but-1-en-1-yl)phenyl)acrylic acid]	≥ 7.00	≥ 40	≤ 100	++ (++ = a single % value ≧ 40%)
CS(=O)(=O)c1ccc(Oc2ccc(/C(=C(\c3ccc(/C=C/C(=O)O)cc3)c3ccc4[nH]ncc4c3)C3CCC3)cc2)nc1 [Compound 162, (E)-3-(4-((E)-2-Cyclobutyl-1-(1H-indazol-5-yl)-2-(4-((5-(methylsulfonyl)pyridin-2-yl)oxy)phenyl)vinyl)phenyl)acrylic acid]	≥ 7.00	≥ 40	≤ 100	++ (++ = a single % value ≧ 40%)
CC/C(=C(/c1ccc(/C=C/C(=O)O)cc1)c1ccc2ccncc2c1)c1ccccc1 [Compound 168, (E)-3-(4-((E)-1-(Isoquinolin-7-yl)-2-phenylbut-1-en-1-yl)phenyl)acrylic acid]	< 7.00	≥ 40	> 100	++ (++ = a single % value ≧ 40%)
CC/C(=C(/c1ccc(/C=C/C(=O)O)cc1)c1coc2ccccc12)c1ccc(F)cc1Cl [Compound 170, (E)-3-(4-((E)-1-(Benzofuran-3-yl)-2-(2-chloro-4-fluorophenyl)but-1-en-1-yl)phenyl)acrylic acid]	≥ 7.00	≥ 40	≤ 100	++ (++ = a single % value ≧ 40%)
CCOC(=O)/C=C/c1ccc(/C(=C(/CC)c2ccccc2)c2ccc3cn[nH]c3c2)cc1 [Compound 172, (E)-Ethyl 3-(4-((E)-1-(1H-indazol-6-yl)-2-phenylbut-1-en-1-yl)phenyl)acrylate]	≥ 7.00	≥ 40	> 100	+ (+ = a single % value < 40%)
CCOC(=O)/C=C/c1ccc(/C(=C(/CC)c2ccccc2)c2cccc3[nH]ncc23)cc1 [Compound 175, (E)-Ethyl 3-(4-((E)-1-(1H-Indazol-4-yl)-2-phenylbut-1-en-1-yl)phenyl)acrylate]	≥ 7.00	≥ 40	≤ 100	+ (+ = a single % value < 40%)
CC/C(=C(/c1ccc(OCC(=O)O)cc1)c1ccc2[nH]ncc2c1)c1ccccc1 [Compound 190, (E)-2-(4-(1-(1H-Indazol-5-yl)-2-phenylbut-1-en-1-yl)phenoxy)acetic acid]	< 7.00	≥ 40	> 100	++ (++ = a single % value ≧ 40%)
CC/C(=C(/c1ccc(/C=C/C(=O)O)cc1)c1ccc2[nH]ncc2c1)c1ccnn1C [Compound 208, (E)-3-(4-((E)-1-(1H-Indazol-5-yl)-2-(1-methyl-1H-pyrazol-5-yl)but-1-en-1-yl)phenyl)acrylic acid]	< 7.00	≥ 40	> 100	+ (+ = a single % value < 40%)
CC/C(=C(/c1ccc(/C=C/C(=O)O)cc1)c1ccc2[nH]ncc2c1)c1ccc(C(=O)NC)cc1F [Compound 213, (E)-3-(4-((E)-2-(2-Fluoro-4-(methylcarbamoyl)phenyl)-1-(1H-indazol-5-yl)but-1-en-1-yl)phenyl)acrylic acid]	< 7.00	≥ 40	> 100	+ (+ = a single % value < 40%)

More lines, main results first:

pIC50 (MCF-7 cells)	Emax (ER-α in MCF-7 cells) [%]	DC50 (ER-α in MCF-7 cells) [nM]	SMILES	MCF7 Viability Assay Max Response (MCF-7 cells)
≥ 7.00	≥ 40	≤ 100	CC/C(=C(/c1ccc(/C=C/C(=O)O)cc1)c1ccc2[nH]ncc2c1F)c1ccc(Oc2ncccn2)cc1 [Compound 160, (E)-3-(4-((E)-1-(4-Fluoro-1H-indazol-5-yl)-2-(4-(pyrimidin-2-yloxy)phenyl)but-1-en-1-yl)phenyl)acrylic acid]	++ (++ = a single % value ≧ 40%)
≥ 7.00	≥ 40	≤ 100	CC/C(=C(/c1ccc(/C=C/C(=O)O)cc1)c1coc2c(OC)cccc12)c1ccccc1 [Compound 163, (E)-3-(4-((E)-1-(7-Methoxybenzofuran-3-yl)-2-phenylbut-1-en-1-yl)phenyl)acrylic acid]	++ (++ = a single % value ≧ 40%)
≥ 7.00	≥ 40	≤ 100	CC/C(=C(/c1ccc(/C=C/C(=O)O)cc1)c1coc2c(OC)cccc12)c1ccc(F)cc1Cl [Compound 164, (E)-3-(4-((E)-2-(2-Chloro-4-fluorophenyl)-1-(7-methoxybenzofuran-3-yl)but-1-en-1-yl)phenyl)acrylic acid]	++ (++ = a single % value ≧ 40%)
≥ 7.00	≥ 40	≤ 100	CC/C(=C(/c1ccc(/C=C/C(=O)O)cc1)c1cc2ccccc2o1)c1ccc(F)cc1Cl [Compound 169, (E)-3-(4-((E)-1-(Benzofuran-2-yl)-2-(2-chloro-4-fluorophenyl)but-1-en-1-yl)phenyl)acrylic acid]	++ (++ = a single % value ≧ 40%)
≥ 7.00	≥ 40	≤ 100	CC/C(=C(/c1ccc2cc(/C=C/C(=O)O)ccc2c1)c1ccc2[nH]ncc2c1)c1ccccc1 [Compound 180, (E)-3-(6-((E)-1-(1H-Indazol-5-yl)-2-phenylbut-1-en-1-yl)naphthalen-2-yl)acrylic acid]	++ (++ = a single % value ≧ 40%)
< 7.00	≥ 40		CC/C(=C(/c1csc(/C=C/C(=O)O)c1)c1ccc2[nH]ncc2c1)c1ccccc1 [Compound 186, (E)-3-(4-((Z)-1-(1H-Indazol-5-yl)-2-phenylbut-1-en-1-yl)thiophen-2-yl)acrylic acid]	+ (+ = a single % value < 40%)
< 7.00	≥ 40		CC/C(=C(/c1ccc(/C=C/C(=O)O)nc1)c1ccc2[nH]ncc2c1)c1ccccc1 [Compound 189, (E)-3-(5-((Z)-1-(1H-Indazol-5-yl)-2-phenylbut-1-en-1-yl)pyridin-2-yl)acrylic acid]	++ (++ = a single % value ≧ 40%)
≥ 7.00	≥ 40	≤ 100	CC/C(=C(/c1ccc(OCCN2CCCC2)cc1)c1ccc2[nH]ncc2c1)c1ccccc1 [Compound 191, (E)-5-(2-Phenyl-1-(4-(2-(pyrrolidin-1-yl)ethoxy)phenyl)but-1-en-1-yl)-1H-indazole]	++ (++ = a single % value ≧ 40%)
< 7.00	≥ 40	> 100	CC/C(=C(/c1ccc2c(c1)CC(C(=O)O)C2)c1ccc2[nH]ncc2c1)c1ccccc1 (stereo not shown) [Compound 192, (E)-5-(1-(1H-Indazol-5-yl)-2-phenylbut-1-en-1-yl)-2,3-dihydro-1H-indene-2-carboxylic acid]	++ (++ = a single % value ≧ 40%)
≥ 7.00	≥ 40	> 100	CCOC(=O)/C=C/c1ccc(/C(=C(/CC)c2ccc(F)cc2Cl)c2ccc3c(cnn3C3CCCCO3)c2)cc1 (stereo not shown) [Compound 193, (E)-Ethyl 3-(4-((E)-2-(2-chloro-4-fluorophenyl)-1-(1-(tetrahydro-2H-pyran-2-yl)-1H-indazol-5-yl)but-1-en-1-yl)phenyl)acrylate]	+ (+ = a single % value < 40%)
≥ 7.00	≥ 40		CC/C(=C(/c1ccc(/C=C/C(=O)O)cc1)c1ccc2[nH]ncc2c1)c1ccncc1Cl [Compound 204, (E)-3-(4-((E)-2-(3-Chloropyridin-4-yl)-1-(1H-indazol-5-yl)but-1-en-1-yl)phenyl)acrylic acid]	++ (++ = a single % value ≧ 40%)
≥ 7.00	≥ 40	≤ 100	CC/C(=C(/c1ccc(/C=C/C(=O)O)cc1)c1ccc2[nH]ncc2c1)c1cnccc1C(F)(F)F [Compound 207, (E)-3-(4-((E)-1-(1H-Indazol-5-yl)-2-(4-(trifluoromethyl)pyridin-3-yl)but-1-en-1-yl)phenyl)acrylic acid]	++ (++ = a single % value ≧ 40%)
< 7.00	≥ 40	> 100	CC/C(=C(/c1ccc(/C=C/C(=O)O)cc1)c1ccc2[nH]ncc2c1)c1ccc(C(=O)N(C)C)cc1F [Compound 212, (E)-3-(4-((E)-2-(4-(Dimethylcarbamoyl)-2-fluorophenyl)-1-(1H-indazol-5-yl)but-1-en-1-yl)phenyl)acrylic acid]	++ (++ = a single % value ≧ 40%)
